# Assay results published in BindingDB's records for doi:10.1021/jm7013887 (Abbott Laboratories, 2008).
# Experiments:
# [1] = biological target: T1, Diacylglycerol O-acyltransferase 1 (Mus musculus, UniProt Q9Z2A7); assay: In Vitro FlashPlate Assay; settings: pH 7.5; 22 °C
# T1 sequence (Q9Z2A7 whole entry): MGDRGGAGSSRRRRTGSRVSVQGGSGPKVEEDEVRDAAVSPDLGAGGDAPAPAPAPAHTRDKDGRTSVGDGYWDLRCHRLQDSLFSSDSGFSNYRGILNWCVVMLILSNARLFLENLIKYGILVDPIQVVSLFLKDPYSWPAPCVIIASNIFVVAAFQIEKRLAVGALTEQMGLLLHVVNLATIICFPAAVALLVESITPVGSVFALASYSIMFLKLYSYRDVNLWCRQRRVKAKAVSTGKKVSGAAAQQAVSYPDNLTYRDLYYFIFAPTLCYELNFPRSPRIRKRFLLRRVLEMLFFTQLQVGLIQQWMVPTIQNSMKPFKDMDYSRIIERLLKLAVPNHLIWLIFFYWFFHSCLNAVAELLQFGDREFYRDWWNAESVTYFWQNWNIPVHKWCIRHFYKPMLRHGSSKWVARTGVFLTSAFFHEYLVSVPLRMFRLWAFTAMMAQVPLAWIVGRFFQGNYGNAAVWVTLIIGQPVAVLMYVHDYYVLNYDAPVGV
# Procedure: (§1) DGAT-1 activity was characterized by catalyzing the transfer of the radiolabeled decanoyl group onto the syn-3 position of didecanoyl glycerol. The resultant radiolabeled tridecanoyl glycerol (tricaprin) preferentially binds to the hydrophobic coating on the phospholipid FlashPlate, and radioactivity was measured in the TopCount Plate Reader. Various concentrations (0.0001 uM to 10 uM) of test compounds were added to individual wells prior to the addition of membranes.
# [2] = biological target: T2, Diacylglycerol O-acyltransferase 1 (Homo sapiens, UniProt O75907); assay: In Vitro FlashPlate Assay; settings: pH 7.5; 22 °C
# T2 sequence (O75907 whole entry): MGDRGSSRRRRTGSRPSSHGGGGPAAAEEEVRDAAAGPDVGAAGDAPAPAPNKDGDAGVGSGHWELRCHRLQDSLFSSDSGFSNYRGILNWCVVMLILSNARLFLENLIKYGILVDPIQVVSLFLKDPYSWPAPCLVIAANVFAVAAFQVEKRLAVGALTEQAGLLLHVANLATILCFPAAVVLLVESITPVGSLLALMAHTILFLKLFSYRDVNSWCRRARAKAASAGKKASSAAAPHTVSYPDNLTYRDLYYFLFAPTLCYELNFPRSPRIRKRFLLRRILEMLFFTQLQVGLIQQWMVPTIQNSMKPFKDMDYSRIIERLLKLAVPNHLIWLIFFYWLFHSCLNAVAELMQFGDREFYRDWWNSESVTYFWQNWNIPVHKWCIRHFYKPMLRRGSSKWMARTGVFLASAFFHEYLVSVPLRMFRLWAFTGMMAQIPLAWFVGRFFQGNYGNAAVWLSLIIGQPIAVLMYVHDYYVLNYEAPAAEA
# Procedure: as §1
smiles,measurement,setting,value
"COc1ccc(NC(=O)Nc2ccc(-c3ccc(C(=O)[C@@H]4CCC[C@H]4C(=O)O)cc3)cc2)cc1 [(1R,2R)-2-{[4-(4-{[(4-methoxyphenyl)carbamoyl]amino}phenyl)phenyl]carbonyl}cyclopentane-1-carboxylic acid]",IC50,[1],28 nM
same,IC50,[2],9 nM
